This is an account of results in PMC7242285, “JNJ-4178 (adafosbuvir, odalasvir, and simeprevir) in Japanese patients with chronic hepatitis C virus genotype 1 or 2 infection with or without compensated cirrhosis: the Phase IIa OMEGA-3 study” (Journal of Gastroenterology, 2020).

The nature of data set [1]: OMEGA-3: plasma pharmacokinetics (sparse sampling and Week 4 intensive sub-study). It is filed as in vivo, human (Japanese patients). The protocol: Blood samples for the assessment of the plasma pharmacokinetics of adafosbuvir (and its metabolites ALS-022399 and ALS-022227), odalasvir, and simeprevir were collected in all patients pre-dose, between 2 and 4 h post-dose, and between 4 and 6 h post-dose at Weeks 2, 4, 6, and 8 (Cohort 2 only) and EOT (Weeks 8 or 12). An additional plasma sample was taken at any time during the Week-12 follow-up visit for measurement of odalasvir only.
Additional blood samples were also obtained at Week 4 in a subgroup of patients (planned: ≥ 6 patients per cohort) who consented to intensive pharmacokinetic sampling (pharmacokinetic sub-study). Blood samples for adafosbuvir (and its metabolites ALS-022399 and ALS-022227), odalasvir, and simeprevir plasma concentrations were collected pre-dose and at 1, 2, 3, 4, 6, 8, 10, 12, and 24 h post-dose.
Plasma concentrations of adafosbuvir, ALS-022399, ALS-022227, simeprevir, and odalasvir were determined using validated liquid chromatography–mass spectrometry methods. The LLOQ for adafosbuvir and odalasvir was 1.00 ng/mL, for ALS-022399 was 2.00 ng/mL, for ALS-022227 was 5.00 ng/mL, and for simeprevir was 20.0 ng/mL.
Descriptive statistics for plasma concentrations of adafosbuvir (and its metabolites), odalasvir, and simeprevir were calculated at each sampling time point. Pharmacokinetic parameters were derived by non-compartmental pharmacokinetic analysis of adafosbuvir (and its metabolites), odalasvir, and simeprevir in the pharmacokinetic sub-study using actual sampling time points and plasma concentrations obtained during intensive sampling at Week 4. Graphs of the mean plasma concentration–time profiles were produced. An exploratory graphical pharmacokinetic/pharmacodynamic analysis was performed by means of scatter plots of pharmacodynamic parameters (individual PR interval [mean of the triplicate ECG measurements] and change from baseline in PR interval [Day 1 was baseline]) versus odalasvir plasma concentrations.

In the next data set the test system is HCV GTs 1–6. Details: method as in doi:10.1016/S0168-8278(17)31470-8, PMID 30070722, PMID 30325939. Conditions: cited from earlier work.
The nature of data set [2]: OMEGA-3 Phase IIa study: adverse events and laboratory safety. The data set is classed as in vivo, human (Japanese patients). The note with it: given as part of JNJ-4178. From the text: The study comprised a 6-week screening phase, an 8-week (Cohort 1: patients with no cirrhosis) or 12-week (Cohort 2: patients with compensated cirrhosis) open-label treatment phase, and a 24-week post-treatment follow-up period. Given that patients with HCV and compensated cirrhosis potentially have a higher safety risk than patients without compensated cirrhosis, dosing of Cohort 2 was only initiated after all safety data had been reviewed up to Week 4 for the first six patients in Cohort 1 by an independent Data Review Committee (Fig. 1). This study was conducted in accordance with the ethical principles that have their origin in the Declaration of Helsinki and that are consistent with Good Clinical Practices and applicable regulatory requirements. The study was approved by the relevant Institutional Review Board at each study center. All patients provided written, informed consent to participate.
Study drugs were administered orally with food at approximately the same time in the morning, each day.
(§1) The primary endpoint was safety, including but not limited to AEs, physical examination, vital signs, 12-lead ECGs, echocardiograms, and clinical laboratory results.
(§2) AEs were reported throughout the study from the time that informed consent to participate was received until completion of the last visit. Complete physical examination, vital signs assessments, and blood and urine sampling for clinical laboratory assessments (including hematological, serum chemistry, liver function, and urinalysis tests) were performed at screening and throughout the study. Triplicate ECGs and echocardiography were also performed at screening and during the study.
The safety analysis was performed on the Safety Set (all patients who received at least one dose of study drug). Safety data were analyzed descriptively. AEs were coded using the Medical Dictionary for Regulatory Activities (version 20.0). Laboratory abnormalities were assessed according to the World Health Organization Toxicity Grading Scale.

A short description of data set [3]: OMEGA-3: ECG and echocardiography. The data set is classed as in vivo, human (Japanese patients). Conditions: graphical evaluation.
Source text: as §1, §2
Descriptive statistics for plasma concentrations of adafosbuvir (and its metabolites), odalasvir, and simeprevir were calculated at each sampling time point. Pharmacokinetic parameters were derived by non-compartmental pharmacokinetic analysis of adafosbuvir (and its metabolites), odalasvir, and simeprevir in the pharmacokinetic sub-study using actual sampling time points and plasma concentrations obtained during intensive sampling at Week 4. Graphs of the mean plasma concentration–time profiles were produced. […]

Details of data set [4]: method as in PMID 29736243. The note with it: single-dose pharmacokinetic studies (data on file) ref 24; cited from earlier work.
The test system of data set [5] is HCV GT1, GT2, GT4, GT5, and GT6. The arrangement: method as in PMID 30693573, doi:10.1016/S0168-8278(12)60857-5. Conditions: cited from earlier work.
For data set [6], the system named is HCV GT3. Details: method as in PMID 30693573. The note with it: HCV GT3 (data on file); cited from earlier work.
The test system of another data set is CYP3A. The note with it: cited from earlier work.
In data set [7] the test system is HCV GT3. The arrangement: method as in PMID 22326470. The note with it: cited from earlier work.
A further data set concerns CYP1A2. Details: method as in PMID 26453968. The note with it: cited from earlier work.
Data set [8] concerns HCV GT1, GT2, GT4, GT5, and GT6. Details: method as in PMID 22326470. The note with it: cited from earlier work.
Where [9] appears, read: Cohort 1: no cirrhosis (N = 22), 8 weeks.
Setting [10] is: Cohort 2: compensated cirrhosis (N = 11), 12 weeks.

Read-outs that look alike come from different tables or passages of the source.

As to `C[C@]1(O)[C@H](n2ccc(=O)[nH]c2=O)O[C@](F)(CO)[C@H]1O` [ALS-022227], in data set [1] (human, in vivo), the “AUC24h, mean (SD)” value is 6688 (3116) ng.h/mL and the “Cmax, mean (SD)” value is 974 (554) ng/mL. Moreover, the “Steady state judged from Ctrough levels” value in [1] (in vivo) is “steady-state exposure had been reached by Week 2”.

What is called Cmax is the highest concentration seen after dosing. For `CC(C)OC(=O)[C@H](C)N[P@](=O)(OC[C@@]1(F)O[C@@H](n2ccc(=O)[nH]c2=O)[C@](C)(O)[C@@H]1O)Oc1ccccc1` [adafosbuvir], the “Plasma trough concentration (Ctrough)” value in [1] (all visits, both patient cohorts, LLOQ 1.00 ng/mL adafosbuvir, 2.00 ng/mL ALS-022399) is reported as “below the limit of quantification”. Also, the AUC(0-t) worked out at 3020 ng·h/mL in data set [1] (human, in vivo, plasma, Week 4, intensive sampling, Cohort 2 (n=2), first value listed, read-out: AUC24h, individual value); 3030 ng·h/mL in data set [1] (human, in vivo, plasma, Week 4, intensive sampling, Cohort 2 (n=2), second value listed, read-out: AUC24h, individual value); 1660 ng·h/mL in [1] (human, in vivo, plasma, Week 4, intensive sampling, JNJ-4178 dosing, Cohort 1: no cirrhosis (n=8), read-out: AUC24h, mean (SD)). Besides, the Cmax in data set [1] (human, in vivo, plasma, Week 4, intensive sampling, Cohort 2 (n=2), first value listed, read-out: Cmax, individual value) amounted to 964 ng/mL; in data set [1] (human, in vivo, plasma, Week 4, intensive sampling, Cohort 2 (n=2), second value listed, read-out: Cmax, individual value), 1430 ng/mL; in data set [1] (human, in vivo, plasma, Week 4, intensive sampling, JNJ-4178 dosing, Cohort 1: no cirrhosis (n=8), read-out: Cmax, mean (SD)) it was 903 ng/mL. Also, the Antiviral activity result in the data set on HCV GTs 1–6 was “potent antiviral activity”. Besides, the “Treatment-related AE at least possibly related to the named drug” value (“Treatment-related AE” below) in [2] (setting [9]) is given as 6 (27.3) n (%); in [2] (setting [10]), 3 (27.3) n (%); in data set [2] (Overall (N = 33)), 9 (27.3) n (%).

Turning to `COC(=O)N[C@H](C(=O)N1[C@H](c2nc3cc(-c4cc5ccc4CCc4ccc(c(-c6ccc7[nH]c([C@@H]8C[C@@H]9CCCC[C@@H]9N8C(=O)[C@@H](NC(=O)OC)C(C)C)nc7c6)c4)CC5)ccc3[nH]2)C[C@@H]2CCCC[C@@H]21)C(C)C` [odalasvir], in [1] (human, in vivo), the “AUC24h, mean (SD)” value was 6320 (1898) ng.h/mL; the “Cmax, mean (SD)” value is listed as 342 (113) ng/mL; the “Maximum Cmax among pharmacokinetic sub-study patients” value is recorded as 546 ng/mL. Further, in data set [1] (in vivo), the “Ctrough levels in Cohort 2 compared with Cohort 1” value is recorded as “modestly lower”, the “Highest pre-dose concentration among patients” value was 474 to 889 ng/mL and the “Steady state judged from Ctrough levels” value was “steady-state conditions had not entirely been reached yet at Week 4”. For the same compound, in data set [3], the “Relationship between PR interval (absolute and change from baseline) and plasma concentrations” value was “no apparent relationship”. The “Treatment-related AE” value in [2] (setting [9]) is reported as 9 (40.9) n (%). For the same compound, the “Treatment-related AE” value in data set [2] (setting [10]) is reported as 4 (36.4) n (%). The “Treatment-related AE” value in data set [2] (Overall (N = 33)) is recorded as 13 (39.4) n (%). The Terminal elimination half-life result in data set [4] is “approximately 250 h”. In addition, in data set [5], the Potency entry is on record as “picomolar”. Also, the Activity result in the data set with HCV GT3 [6] is reported as “nanomolar”.

Take `COc1ccc2c(O[C@@H]3C[C@H]4C(=O)N[C@]5(C(=O)NS(=O)(=O)C6CC6)C[C@H]5/C=C\CCCCN(C)C(=O)[C@@H]4C3)cc(-c3nc(C(C)C)cs3)nc2c1C` [simeprevir]: the “Ctrough, max (between-patient variability)” value in data set [1] (human, in vivo) is on record as 6090 ng/mL. The “Ctrough, min (between-patient variability)” value in [1] (human, in vivo) came to 92.2 ng/mL. The “Steady state judged from Ctrough levels” value in data set [1] (human, in vivo) was “steady-state exposure had been reached by Week 2”. Further, the AUC(0-t) in [1] (human, in vivo, AUC24h, mean (SD)) was found to be 26900 ng·h/mL. Further, the Cmax in data set [1] (human, in vivo, Cmax, mean (SD)) is 2200 ng/mL. Also, the “Ctrough levels in Cohort 2 compared with Cohort 1” value in [1] (in vivo) is on record as “higher”. For the same compound, the Metabolism result in the data set with CYP3A is “metabolized by cytochrome P450 (CYP) 3A”. The “Inhibition of CYP3A” value with CYP3A (intestinal (not hepatic) CYP3A) was “mild inhibitor”. The entries for the “Treatment-related AE” value in data set [2] (setting [9]), in data set [2] (setting [10]) and in data set [2] (Overall (N = 33)) were 6 (27.3) n (%), 2 (18.2) n (%) and 8 (24.2) n (%), respectively. The “Antiviral activity in infected patients” value in the data set with HCV GT3 [7] is “no antiviral activity”; in data set [8], “demonstrated antiviral activity”. The “Inhibition of CYP1A2” value in the data set with CYP1A2 is on record as “mild, but not clinically relevant, inhibitor”.
